Kd data for two molecules are collected here from publication PMC3566180, “Glucose 6P Binds and Activates HlyIIR to Repress Bacillus cereus Haemolysin hlyII Gene Expression” (PLoS ONE, 2013).

The target in data set [1] is T1, HlyIIR (Bacillus thuringiensis, UniProt A0A1W6WQG6).
T1 construct: gene CAB88_17715; hlyIIR gene amplified from the Bt407 chromosome, GST-tagged (pGEX6P1), tag removed with Precission protease
Put plainly: isothermal titration calorimetry (ITC200, […]°C, […] purified HlyIIR, N = […]). It counts as binding. A general note: Isothermal titration calorimetry measures the heat released or taken up as one component is titrated into another.

The test system of data set [2] is HlyIIR (Bacillus cereus Bt407). Nature of the data set: ITC. The note with it: ITC200, 20 C, protein storage buffer (composition and pH not given), 28 uM HlyIIR in cell, 1.25 uM DNA injected (20 x 2 ul).

T1 sequence (A0A1W6WQG6 entry or part of it): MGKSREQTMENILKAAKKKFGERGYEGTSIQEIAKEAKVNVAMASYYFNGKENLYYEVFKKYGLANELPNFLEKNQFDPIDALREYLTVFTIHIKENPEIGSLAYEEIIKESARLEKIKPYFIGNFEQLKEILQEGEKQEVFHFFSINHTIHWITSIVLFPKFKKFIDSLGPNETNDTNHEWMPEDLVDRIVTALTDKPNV

The term Kd denotes the constant that tells how readily two partners part at equilibrium. With `O=P(O)(O)OC[C@H]1OC(O)[C@H](O)[C@@H](O)[C@@H]1O` (some centres unmarked) [glucose 6P], the Kd in data set [1] is around 10.8 µM.

In turn, hlyII promoter fragment (220 bp) registered a dissociation constant (Kd) in data set [2] of 0.11 µM.
